In ChEMBL document CHEMBL1151840, “Synthetic oligoribonucleotides containing arabinonucleotides act as agonists of TLR7 and 8” (Bioorg Med Chem Lett, 2009):
Active and inactive are the calls of the source. The calls are words filed in the database; no cut-off is given here.

Key:
Serum = assay: (§1) Stability in human serum assessed as full-length compound remaining after 10 mins by anion-exchange HPLC; format: ADME, cell-free; details: 10 min
[1] = as §1; format: ADME, cell-free; details: read-out: Stability
PBMC [2] = assay: Stimulation of immune response in human PBMC assessed as induction of IL2R level at 150 ug/ml after 24 hrs; format: functional, cell-based
PBMC [3] = assay: Stimulation of immune response in human PBMC assessed as induction of IFNalpha production at 150 ug/ml after 24 hrs; format: functional, cell-based
Homo sapiens [4] = organism: Homo sapiens; assay: Stimulation of immune response in human pDC assessed as induction of IFNalpha production at 150 ug/ml after 24 hrs; format: functional
Homo sapiens [5] = organism: Homo sapiens; assay: Stimulation of immune response in human pDC assessed as induction of IL12 production at 150 ug/ml after 24 hrs; format: functional
PBMC [6] = assay: Stimulation of immune response in human PBMC assessed as induction of IL1-beta production at 150 ug/ml after 24 hrs; format: functional, cell-based
Homo sapiens [7] = organism: Homo sapiens; assay: Stimulation of immune response in human pDC assessed as induction of MIP1beta production at 150 ug/ml after 24 hrs; format: functional
PBMC [8] = assay: Stimulation of immune response in human PBMC assessed as induction of MIP1beta production at 150 ug/ml after 24 hrs; format: functional, cell-based
PBMC [9] = assay: Stimulation of immune response in human PBMC assessed as induction of TNFalpha production at 150 ug/ml after 24 hrs; format: functional, cell-based
[10] = target: T1, Toll-like receptor 7 (Homo sapiens) (UniProt Q9NYK1); assay: Agonist activity at human TLR7 expressed in HEK293XL cells assessed as NF-kappaB activation after 18 hrs; format: functional, cell-based
T1 sequence (whole entry): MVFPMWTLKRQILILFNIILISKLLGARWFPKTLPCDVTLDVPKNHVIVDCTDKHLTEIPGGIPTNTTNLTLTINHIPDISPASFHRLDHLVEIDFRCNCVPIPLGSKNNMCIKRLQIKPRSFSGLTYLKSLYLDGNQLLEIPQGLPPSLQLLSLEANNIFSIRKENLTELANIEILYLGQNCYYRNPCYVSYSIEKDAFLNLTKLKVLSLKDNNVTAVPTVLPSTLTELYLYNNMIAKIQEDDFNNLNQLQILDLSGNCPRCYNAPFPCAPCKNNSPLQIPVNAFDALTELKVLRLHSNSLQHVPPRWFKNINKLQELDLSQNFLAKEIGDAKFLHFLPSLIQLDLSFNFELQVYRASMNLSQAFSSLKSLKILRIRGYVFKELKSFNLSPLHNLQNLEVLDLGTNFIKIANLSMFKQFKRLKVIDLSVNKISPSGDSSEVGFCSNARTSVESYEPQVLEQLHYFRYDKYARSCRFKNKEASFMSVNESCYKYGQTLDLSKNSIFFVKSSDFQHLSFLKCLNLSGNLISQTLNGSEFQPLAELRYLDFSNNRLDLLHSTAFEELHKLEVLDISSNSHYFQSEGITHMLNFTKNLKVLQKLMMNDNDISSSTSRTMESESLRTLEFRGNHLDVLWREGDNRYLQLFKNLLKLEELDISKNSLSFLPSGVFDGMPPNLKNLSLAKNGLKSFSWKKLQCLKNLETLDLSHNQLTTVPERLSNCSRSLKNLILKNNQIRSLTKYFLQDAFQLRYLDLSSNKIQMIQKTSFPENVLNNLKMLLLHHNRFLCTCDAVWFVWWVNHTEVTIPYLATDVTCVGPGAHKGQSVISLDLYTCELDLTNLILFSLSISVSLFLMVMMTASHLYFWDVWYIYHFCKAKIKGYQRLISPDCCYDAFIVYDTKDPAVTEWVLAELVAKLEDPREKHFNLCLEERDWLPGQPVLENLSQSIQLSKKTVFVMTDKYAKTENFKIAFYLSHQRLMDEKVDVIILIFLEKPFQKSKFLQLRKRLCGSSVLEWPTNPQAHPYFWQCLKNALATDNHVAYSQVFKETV

Mus musculus [11] = assay: Stimulation of immune response in C57BL/6 mouse assessed as induction of serum IL12 production at 50 mg/kg, sc after 2 hrs by luminex multiplex assay; format: functional, organism-based; design: dose 50 mg/kg
Mus musculus [12] = assay: Stimulation of immune response in C57BL/6 mouse assessed as induction of serum IL10 production at 50 mg/kg, sc after 2 hrs by luminex multiplex assay; format: functional, organism-based; design: dose 50 mg/kg
PBMC [13] = assay: Stimulation of immune response in human PBMC assessed as induction of IFN-gamma production at 150 ug/ml after 24 hrs; format: functional, cell-based
Mus musculus [14] = assay: Stimulation of immune response in C57BL/6 mouse assessed as induction of serum chemokine KC production at 50 mg/kg, sc after 2 hrs by luminex multiplex assay; format: functional, organism-based; design: dose 50 mg/kg
Homo sapiens [15] = organism: Homo sapiens; assay: Stimulation of immune response in human pDC assessed as induction of IFN-gamma production at 150 ug/ml after 24 hrs; format: functional
PBMC [16] = assay: Stimulation of immune response in human PBMC assessed as induction of IL12 production at 150 ug/ml after 24 hrs; format: functional, cell-based
Homo sapiens [17] = organism: Homo sapiens; assay: Stimulation of immune response in human pDC assessed as induction of MIP1alpha production at 150 ug/ml after 24 hrs; format: functional
PBMC [18] = assay: Stimulation of immune response in human PBMC assessed as induction of MIP1alpha production at 150 ug/ml after 24 hrs; format: functional, cell-based
PBMC [19] = assay: Stimulation of immune response in human PBMC assessed as induction of IL10 production at 150 ug/ml after 24 hrs; format: functional, cell-based
[20] = target: T2, Toll-like receptor 8 (Homo sapiens) (UniProt Q9NR97); assay: Agonist activity at human TLR8 expressed in HEK293XL cells assessed as NF-kappaB activation after 18 hrs; format: functional, cell-based
T2 sequence (whole entry): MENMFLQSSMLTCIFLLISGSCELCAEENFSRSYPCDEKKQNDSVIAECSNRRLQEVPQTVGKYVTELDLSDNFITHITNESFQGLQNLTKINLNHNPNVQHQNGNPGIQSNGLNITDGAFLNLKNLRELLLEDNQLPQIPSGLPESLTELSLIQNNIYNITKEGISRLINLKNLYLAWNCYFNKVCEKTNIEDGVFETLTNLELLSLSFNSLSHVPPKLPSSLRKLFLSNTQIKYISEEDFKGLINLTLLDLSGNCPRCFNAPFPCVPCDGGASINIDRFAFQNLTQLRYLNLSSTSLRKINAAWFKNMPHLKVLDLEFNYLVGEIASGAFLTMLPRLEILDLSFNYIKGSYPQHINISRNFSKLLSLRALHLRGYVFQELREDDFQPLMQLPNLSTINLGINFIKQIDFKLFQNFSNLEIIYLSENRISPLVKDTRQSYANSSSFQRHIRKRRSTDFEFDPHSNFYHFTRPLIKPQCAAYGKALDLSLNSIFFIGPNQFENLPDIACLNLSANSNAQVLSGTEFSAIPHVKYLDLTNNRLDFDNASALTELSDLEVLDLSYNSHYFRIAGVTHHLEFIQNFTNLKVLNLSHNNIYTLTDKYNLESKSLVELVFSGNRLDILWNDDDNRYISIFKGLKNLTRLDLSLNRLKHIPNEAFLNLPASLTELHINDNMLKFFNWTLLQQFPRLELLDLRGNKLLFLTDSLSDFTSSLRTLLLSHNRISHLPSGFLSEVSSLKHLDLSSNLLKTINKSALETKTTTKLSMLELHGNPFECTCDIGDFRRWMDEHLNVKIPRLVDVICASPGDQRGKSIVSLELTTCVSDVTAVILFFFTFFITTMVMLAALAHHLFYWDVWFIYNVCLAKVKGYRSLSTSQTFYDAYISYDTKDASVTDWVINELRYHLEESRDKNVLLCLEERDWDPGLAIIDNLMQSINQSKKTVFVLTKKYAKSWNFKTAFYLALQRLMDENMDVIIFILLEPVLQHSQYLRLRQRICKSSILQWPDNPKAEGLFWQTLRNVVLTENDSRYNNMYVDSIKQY

PBMC [21] = assay: Stimulation of immune response in human PBMC assessed as induction of RANTES production at 150 ug/ml after 24 hrs; format: functional, cell-based
Homo sapiens [22] = organism: Homo sapiens; assay: Stimulation of immune response in human pDC assessed as induction of TNFalpha production at 150 ug/ml after 24 hrs; format: functional
PBMC [23] = assay: Stimulation of immune response in human PBMC assessed as induction of MCP1 production at 150 ug/ml after 24 hrs; format: functional, cell-based
PBMC [24] = assay: Stimulation of immune response in human PBMC assessed as induction of IL8 production at 150 ug/ml after 24 hrs; format: functional, cell-based

Nc1ccn([C@@H]2O[C@H](COP(=O)(S)O[C@H]3[C@@H](O)[C@H](n4cnc5c(N)ncnc54)O[C@@H]3COP(=O)(S)O[C@H]3[C@@H](O)[C@H](n4cnc5c(=O)[nH]c(N)nc54)O[C@@H]3COP(=O)(S)O[C@H]3[C@@H](O)[C@H](n4ccc(=O)[nH]c4=O)O[C@@H]3COP(=O)(S)O[C@H]3[C@@H](O)[C@H](n4cnc5c(=O)[nH]c(N)nc54)O[C@@H]3COP(=O)(S)O[C@H]3[C@@H](O)[C@H](n4ccc(=O)[nH]c4=O)O[C@@H]3COP(=O)(S)O[C@H]3[C@@H](O)[C@H](n4cnc5c(=O)[nH]c(N)nc54)O[C@@H]3COP(=O)(S)O[C@H]3[C@@H](O)[C@H](n4ccc(=O)[nH]c4=O)O[C@@H]3COP(=O)(S)O[C@H]3[C@@H](O)[C@H](n4ccc(=O)[nH]c4=O)O[C@@H]3COP(=O)(S)O[C@H]3[C@@H](O)[C@H](n4cnc5c(=O)[nH]c(N)nc54)O[C@@H]3COP(=O)(S)O[C@H]3[C@@H](O)[C@H](n4ccc(=O)[nH]c4=O)O[C@H]3CO)[C@@H](OP(=O)(S)OCC(O)COP(=O)(S)O[C@H]3[C@@H](O)[C@H](n4ccc(N)nc4=O)O[C@@H]3COP(=O)(S)O[C@H]3[C@@H](O)[C@H](n4cnc5c(N)ncnc54)O[C@@H]3COP(=O)(S)O[C@H]3[C@@H](O)[C@H](n4cnc5c(=O)[nH]c(N)nc54)O[C@@H]3COP(=O)(S)O[C@H]3[C@@H](O)[C@H](n4ccc(=O)[nH]c4=O)O[C@@H]3COP(=O)(S)O[C@H]3[C@@H](O)[C@H](n4cnc5c(=O)[nH]c(N)nc54)O[C@@H]3COP(=O)(S)O[C@H]3[C@@H](O)[C@H](n4ccc(=O)[nH]c4=O)O[C@@H]3COP(=O)(S)O[C@H]3[C@@H](O)[C@H](n4cnc5c(=O)[nH]c(N)nc54)O[C@@H]3COP(=O)(S)O[C@H]3[C@@H](O)[C@H](n4ccc(=O)[nH]c4=O)O[C@@H]3COP(=O)(S)O[C@H]3[C@@H](O)[C@H](n4ccc(=O)[nH]c4=O)O[C@@H]3COP(=O)(S)O[C@H]3[C@@H](O)[C@H](n4cnc5c(=O)[nH]c(N)nc54)O[C@@H]3COP(=O)(S)O[C@H]3[C@@H](O)[C@H](n4ccc(=O)[nH]c4=O)O[C@@H]3CO)[C@H]2O)c(=O)n1 (stereo in doubt; 5)
Stability (Serum): 75%

Nc1ccn([C@@H]2O[C@H](COP(=O)(S)O[C@H]3[C@@H](O)[C@H](n4ccc(=O)[nH]c4=O)O[C@@H]3COP(=O)(S)O[C@H]3[C@H](O)[C@H](n4cnc5c(=O)[nH]c(N)nc54)O[C@@H]3COP(=O)(S)O[C@H]3[C@H](O)[C@H](n4ccc(N)nc4=O)O[C@@H]3COP(=O)(S)O[C@H]3[C@@H](O)[C@H](n4ccc(=O)[nH]c4=O)O[C@@H]3COP(=O)(S)O[C@H]3[C@@H](O)[C@H](n4ccc(=O)[nH]c4=O)O[C@@H]3COP(=O)(S)O[C@H]3[C@@H](O)[C@H](n4cnc5c(=O)[nH]c(N)nc54)O[C@@H]3COP(=O)(S)O[C@H]3[C@@H](O)[C@H](n4ccc(=O)[nH]c4=O)O[C@@H]3COP(=O)(S)O[C@H]3[C@@H](O)[C@H](n4cnc5c(=O)[nH]c(N)nc54)O[C@@H]3COP(=O)(S)OCC(O)COP(=O)(S)O[C@H]3[C@@H](O)[C@H](n4cnc5c(=O)[nH]c(N)nc54)O[C@@H]3COP(=O)(S)O[C@H]3[C@@H](O)[C@H](n4ccc(=O)[nH]c4=O)O[C@@H]3COP(=O)(S)O[C@H]3[C@@H](O)[C@H](n4cnc5c(=O)[nH]c(N)nc54)O[C@@H]3COP(=O)(S)O[C@H]3[C@@H](O)[C@H](n4ccc(=O)[nH]c4=O)O[C@@H]3COP(=O)(S)O[C@H]3[C@@H](O)[C@H](n4ccc(=O)[nH]c4=O)O[C@@H]3COP(=O)(S)O[C@H]3[C@H](O)[C@H](n4ccc(N)nc4=O)O[C@@H]3COP(=O)(S)O[C@H]3[C@@H](O)[C@H](n4cnc5c(=O)[nH]c(N)nc54)O[C@@H]3COP(=O)(S)O[C@H]3[C@@H](O)[C@H](n4ccc(=O)[nH]c4=O)O[C@@H]3COP(=O)(S)O[C@H]3[C@H](O)[C@H](n4ccc(N)nc4=O)O[C@@H]3COP(=O)(S)O[C@H]3[C@@H](O)[C@H](n4cnc5c(=O)[nH]c(N)nc54)O[C@@H]3COP(=O)(S)O[C@H]3[C@@H](O)[C@H](n4ccc(=O)[nH]c4=O)O[C@@H]3CO)[C@@H](OP(=O)(S)OC[C@H]3O[C@@H](n4cnc5c(=O)[nH]c(N)nc54)[C@H](O)[C@@H]3OP(=O)(S)OC[C@H]3O[C@@H](n4ccc(=O)[nH]c4=O)[C@H](O)[C@@H]3OP(=O)(O)S)[C@@H]2O)c(=O)n1 (stereo not given in full)
remaining at 10 min [1]: 76%
Activity (PBMC [2]): Active
Activity (PBMC [3]): Active
Activity (Homo sapiens [4]): Active
Activity (Homo sapiens [5]): Active
Activity (PBMC [6]): Active
Activity (Homo sapiens [7]): Active
Activity (PBMC [8]): Active
Activity (PBMC [9]): Active
Activity [10]: Dose-dependent effect
Activity (Mus musculus [11]): Active
Activity (Mus musculus [12]): Active
Activity (PBMC [13]): Active
Activity (Mus musculus [14]): Active
Activity (Homo sapiens [15]): Active
Activity (PBMC [16]): Active
Activity (Homo sapiens [17]): Active
Activity (PBMC [18]): Active
Activity (PBMC [19]): Active
Activity [20]: Dose-dependent effect
Activity (PBMC [21]): Active
Activity (Homo sapiens [22]): Active
Activity (PBMC [23]): Active
Activity (PBMC [24]): Active
